Assay results as given in US10231954B2, “Neurodegenerative therapies” (LYTIX BIOPHARMA AS, priority 2014, dated 2019).

Experiments:
Type in all cases: biochemical
PRK2 = PRK2 (Homo sapiens, UniProt Q16513); assay: Kinase profiling PRK2
Excerpt: (§1) Any value less that 25 is considered to be highly significant inhibition.

RSK1 = RSK1 (Homo sapiens, UniProt Q15418); assay: Kinase profiling RSK1
Excerpt: as §1

JNK2 = JNK2 (Homo sapiens, UniProt P45984); assay: Kinase profiling JNK2; settings: 100 micromolar inhibitor concentration; 100 is no change
Sequence of JNK2 (P45984 whole entry, species assumed): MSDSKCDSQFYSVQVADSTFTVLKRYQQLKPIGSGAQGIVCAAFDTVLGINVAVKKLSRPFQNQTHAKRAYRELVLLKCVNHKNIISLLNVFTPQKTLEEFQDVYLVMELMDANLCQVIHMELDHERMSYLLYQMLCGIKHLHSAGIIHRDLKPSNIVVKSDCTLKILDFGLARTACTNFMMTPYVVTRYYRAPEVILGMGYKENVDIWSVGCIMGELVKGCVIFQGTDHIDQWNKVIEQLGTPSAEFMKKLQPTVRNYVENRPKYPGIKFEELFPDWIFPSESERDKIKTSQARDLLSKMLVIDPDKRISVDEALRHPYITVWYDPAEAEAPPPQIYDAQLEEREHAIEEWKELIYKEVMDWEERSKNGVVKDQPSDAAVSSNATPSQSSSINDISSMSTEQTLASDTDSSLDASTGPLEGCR
Excerpt: as §1

PKD1 = target: T1, PKD1 (Homo sapiens, UniProt Q15139); assay: Kinase profiling PKD1
T1 sequence (Q15139 1-912): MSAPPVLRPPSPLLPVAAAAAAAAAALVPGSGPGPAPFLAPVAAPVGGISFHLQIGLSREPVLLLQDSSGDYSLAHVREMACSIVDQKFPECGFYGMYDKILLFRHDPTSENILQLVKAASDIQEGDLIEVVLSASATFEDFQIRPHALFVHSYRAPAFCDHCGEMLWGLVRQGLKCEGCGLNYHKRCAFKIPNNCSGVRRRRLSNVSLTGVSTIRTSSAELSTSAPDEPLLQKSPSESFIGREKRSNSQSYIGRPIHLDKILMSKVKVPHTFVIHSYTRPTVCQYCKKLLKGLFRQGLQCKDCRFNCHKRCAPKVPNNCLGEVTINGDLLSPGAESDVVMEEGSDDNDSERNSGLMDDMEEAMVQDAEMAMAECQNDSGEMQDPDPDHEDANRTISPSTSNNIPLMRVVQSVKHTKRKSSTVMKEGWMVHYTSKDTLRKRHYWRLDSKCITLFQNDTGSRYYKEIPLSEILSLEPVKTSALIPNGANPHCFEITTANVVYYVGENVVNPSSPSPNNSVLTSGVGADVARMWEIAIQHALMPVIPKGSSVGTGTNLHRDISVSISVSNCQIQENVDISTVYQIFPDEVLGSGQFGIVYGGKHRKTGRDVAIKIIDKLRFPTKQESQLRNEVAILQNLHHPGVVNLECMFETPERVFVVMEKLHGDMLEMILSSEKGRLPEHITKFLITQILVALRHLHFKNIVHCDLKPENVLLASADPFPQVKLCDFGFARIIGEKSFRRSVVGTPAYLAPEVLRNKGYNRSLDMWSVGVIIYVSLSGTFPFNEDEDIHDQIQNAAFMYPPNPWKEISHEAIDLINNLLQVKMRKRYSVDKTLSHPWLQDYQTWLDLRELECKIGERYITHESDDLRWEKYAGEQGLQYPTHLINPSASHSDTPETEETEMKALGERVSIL
Excerpt: as §1

MKK6 = target: T2, MKK6 (Homo sapiens, UniProt P52564); assay: Kinase profiling MKK6; settings: 100 micromolar inhibitor concentration; 100 is no change
T2 sequence (P52564 1-334): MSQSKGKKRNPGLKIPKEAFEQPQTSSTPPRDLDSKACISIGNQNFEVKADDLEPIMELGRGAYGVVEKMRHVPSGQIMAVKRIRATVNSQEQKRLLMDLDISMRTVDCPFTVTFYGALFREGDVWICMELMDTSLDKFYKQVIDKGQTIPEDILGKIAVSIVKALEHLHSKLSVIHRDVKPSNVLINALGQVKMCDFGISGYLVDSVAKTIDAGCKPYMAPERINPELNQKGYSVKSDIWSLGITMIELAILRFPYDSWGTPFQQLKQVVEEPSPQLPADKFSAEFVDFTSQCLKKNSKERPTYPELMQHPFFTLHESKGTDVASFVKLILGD
Excerpt: as §1

ROCK 2 = ROCK 2 (Homo sapiens, UniProt O75116); assay: Kinase profiling ROCK 2
Sequence of ROCK 2 (O75116 whole entry, species assumed): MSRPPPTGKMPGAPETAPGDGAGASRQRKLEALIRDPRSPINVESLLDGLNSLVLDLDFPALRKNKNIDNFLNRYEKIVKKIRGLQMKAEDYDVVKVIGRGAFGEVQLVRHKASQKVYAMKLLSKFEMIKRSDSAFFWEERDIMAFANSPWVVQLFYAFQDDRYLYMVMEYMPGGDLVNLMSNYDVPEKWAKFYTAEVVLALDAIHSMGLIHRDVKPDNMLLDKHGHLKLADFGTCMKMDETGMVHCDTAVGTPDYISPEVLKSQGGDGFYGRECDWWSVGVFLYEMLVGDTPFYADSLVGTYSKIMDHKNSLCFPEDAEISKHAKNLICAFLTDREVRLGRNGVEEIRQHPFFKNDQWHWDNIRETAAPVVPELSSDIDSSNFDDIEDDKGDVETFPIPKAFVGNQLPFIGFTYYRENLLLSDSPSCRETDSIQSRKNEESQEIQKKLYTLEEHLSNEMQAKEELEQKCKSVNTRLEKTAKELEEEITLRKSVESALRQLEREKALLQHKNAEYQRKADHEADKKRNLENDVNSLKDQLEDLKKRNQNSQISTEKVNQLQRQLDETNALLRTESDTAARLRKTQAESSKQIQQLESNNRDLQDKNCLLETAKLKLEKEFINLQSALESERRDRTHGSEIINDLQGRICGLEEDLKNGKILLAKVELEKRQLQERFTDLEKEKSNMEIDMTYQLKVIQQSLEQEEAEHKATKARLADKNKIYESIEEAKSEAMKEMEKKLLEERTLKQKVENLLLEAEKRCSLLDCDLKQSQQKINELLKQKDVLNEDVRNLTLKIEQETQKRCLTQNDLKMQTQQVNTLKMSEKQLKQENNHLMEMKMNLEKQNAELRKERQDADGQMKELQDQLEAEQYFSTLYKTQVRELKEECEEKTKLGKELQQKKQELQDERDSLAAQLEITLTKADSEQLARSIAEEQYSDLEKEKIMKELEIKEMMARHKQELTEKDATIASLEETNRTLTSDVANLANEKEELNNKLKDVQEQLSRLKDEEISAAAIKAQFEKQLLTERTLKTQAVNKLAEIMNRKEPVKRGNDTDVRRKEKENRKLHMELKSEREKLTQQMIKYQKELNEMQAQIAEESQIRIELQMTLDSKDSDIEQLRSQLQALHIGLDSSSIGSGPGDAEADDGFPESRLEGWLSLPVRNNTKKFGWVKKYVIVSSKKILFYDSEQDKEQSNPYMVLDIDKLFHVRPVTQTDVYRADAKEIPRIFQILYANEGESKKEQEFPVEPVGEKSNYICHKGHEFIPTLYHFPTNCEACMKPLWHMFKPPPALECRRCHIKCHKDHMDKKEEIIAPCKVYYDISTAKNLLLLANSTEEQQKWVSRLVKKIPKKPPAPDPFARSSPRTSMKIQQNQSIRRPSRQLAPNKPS
Excerpt: as §1

ERK2 = ERK2 (Homo sapiens, UniProt P28482); assay: Kinase profiling ERK2; settings: 100 micromolar inhibitor concentration; 100 is no change
Sequence of ERK2 (P28482 whole entry, species assumed): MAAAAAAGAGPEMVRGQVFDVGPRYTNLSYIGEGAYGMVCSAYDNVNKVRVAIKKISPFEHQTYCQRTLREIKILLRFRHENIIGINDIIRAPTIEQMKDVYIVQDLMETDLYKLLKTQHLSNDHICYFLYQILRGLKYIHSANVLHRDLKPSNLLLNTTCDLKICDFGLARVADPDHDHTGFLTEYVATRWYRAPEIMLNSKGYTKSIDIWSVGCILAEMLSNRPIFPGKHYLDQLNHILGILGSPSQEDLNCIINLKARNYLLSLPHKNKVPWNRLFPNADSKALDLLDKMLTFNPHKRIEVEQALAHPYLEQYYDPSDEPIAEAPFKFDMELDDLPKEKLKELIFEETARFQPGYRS
Excerpt: as §1

PKCγ = PKCγ (Homo sapiens, UniProt P05129); assay: Kinase profiling PKCγ; settings: 100 micromolar inhibitor concentration; 100 is no change
Excerpt: as §1

STK33 = STK33 (Homo sapiens, UniProt Q9BYT3); assay: Kinase profiling STK33; settings: 100 micromolar inhibitor concentration; 100 is no change
Sequence of STK33 (Q9BYT3 whole entry, species assumed): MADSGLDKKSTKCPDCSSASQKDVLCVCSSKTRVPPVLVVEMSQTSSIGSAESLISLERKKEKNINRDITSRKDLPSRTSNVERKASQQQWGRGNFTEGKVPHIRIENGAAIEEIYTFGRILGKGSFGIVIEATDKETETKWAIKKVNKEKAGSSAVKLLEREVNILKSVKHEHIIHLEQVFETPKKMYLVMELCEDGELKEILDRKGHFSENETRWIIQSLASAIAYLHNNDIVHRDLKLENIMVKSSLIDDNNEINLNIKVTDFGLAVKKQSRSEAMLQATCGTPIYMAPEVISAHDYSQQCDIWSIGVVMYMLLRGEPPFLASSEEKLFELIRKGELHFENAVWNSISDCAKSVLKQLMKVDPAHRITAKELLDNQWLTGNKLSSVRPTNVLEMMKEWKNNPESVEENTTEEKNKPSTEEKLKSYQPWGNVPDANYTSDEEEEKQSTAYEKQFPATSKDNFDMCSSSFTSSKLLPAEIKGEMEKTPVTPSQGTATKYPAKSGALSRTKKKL
Excerpt: as §1

TAK1 = target: T3, TAK1 (Homo sapiens, UniProt O43318); assay: Kinase profiling TAK1
T3 sequence (O43318 1-303 limits assumed): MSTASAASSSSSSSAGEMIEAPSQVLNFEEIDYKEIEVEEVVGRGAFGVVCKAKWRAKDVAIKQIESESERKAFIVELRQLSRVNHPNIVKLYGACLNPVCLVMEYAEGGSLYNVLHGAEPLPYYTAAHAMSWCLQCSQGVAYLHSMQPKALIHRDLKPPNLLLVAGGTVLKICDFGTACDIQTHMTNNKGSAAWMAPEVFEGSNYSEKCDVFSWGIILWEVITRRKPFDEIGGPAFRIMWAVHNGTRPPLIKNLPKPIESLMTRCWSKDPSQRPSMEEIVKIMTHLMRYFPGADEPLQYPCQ
T3 sequence (Q15750 437-504 partner limits assumed): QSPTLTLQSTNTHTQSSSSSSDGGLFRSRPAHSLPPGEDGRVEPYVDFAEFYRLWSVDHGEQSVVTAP
Excerpt: as §1

HER4 = HER4 (Homo sapiens, UniProt Q15303); assay: Kinase profiling HER4
Excerpt: as §1

NEK6 = NEK6 (Homo sapiens, UniProt Q9HC98); assay: Kinase profiling NEK6
Sequence of NEK6 (Q9HC98 whole entry, species assumed): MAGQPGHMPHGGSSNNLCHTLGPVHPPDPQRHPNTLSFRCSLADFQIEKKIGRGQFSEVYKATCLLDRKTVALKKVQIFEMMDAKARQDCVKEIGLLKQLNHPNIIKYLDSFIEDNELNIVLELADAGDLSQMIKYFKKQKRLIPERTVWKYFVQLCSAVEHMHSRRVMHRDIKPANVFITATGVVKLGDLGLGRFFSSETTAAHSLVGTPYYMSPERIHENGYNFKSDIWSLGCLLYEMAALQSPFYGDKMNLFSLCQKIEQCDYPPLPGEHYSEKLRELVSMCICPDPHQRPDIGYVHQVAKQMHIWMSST
Excerpt: as §1

MST2 = target: T4, MST2 (Homo sapiens, UniProt Q13188); assay: Kinase profiling MST2
T4 sequence (Q13188 1-491): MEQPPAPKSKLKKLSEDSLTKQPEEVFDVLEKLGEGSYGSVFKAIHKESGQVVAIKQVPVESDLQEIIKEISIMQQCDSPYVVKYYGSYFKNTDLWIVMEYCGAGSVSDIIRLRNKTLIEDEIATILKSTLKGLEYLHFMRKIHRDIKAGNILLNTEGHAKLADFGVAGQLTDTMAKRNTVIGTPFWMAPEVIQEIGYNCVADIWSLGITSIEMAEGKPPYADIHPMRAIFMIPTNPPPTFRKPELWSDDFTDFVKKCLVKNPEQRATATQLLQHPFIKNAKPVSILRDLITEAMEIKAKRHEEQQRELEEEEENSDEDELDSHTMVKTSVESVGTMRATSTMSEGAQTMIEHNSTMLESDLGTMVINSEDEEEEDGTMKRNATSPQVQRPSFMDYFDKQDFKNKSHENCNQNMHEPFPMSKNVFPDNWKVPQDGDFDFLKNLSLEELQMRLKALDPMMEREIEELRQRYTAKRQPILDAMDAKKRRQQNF
Excerpt: as §1

[1] = 100 micromolar inhibitor concentration, 100 is no change
[2] = 100 micromolar inhibitor, 100 = no change

Sequence of PRK2 (Q16513 whole entry, species assumed): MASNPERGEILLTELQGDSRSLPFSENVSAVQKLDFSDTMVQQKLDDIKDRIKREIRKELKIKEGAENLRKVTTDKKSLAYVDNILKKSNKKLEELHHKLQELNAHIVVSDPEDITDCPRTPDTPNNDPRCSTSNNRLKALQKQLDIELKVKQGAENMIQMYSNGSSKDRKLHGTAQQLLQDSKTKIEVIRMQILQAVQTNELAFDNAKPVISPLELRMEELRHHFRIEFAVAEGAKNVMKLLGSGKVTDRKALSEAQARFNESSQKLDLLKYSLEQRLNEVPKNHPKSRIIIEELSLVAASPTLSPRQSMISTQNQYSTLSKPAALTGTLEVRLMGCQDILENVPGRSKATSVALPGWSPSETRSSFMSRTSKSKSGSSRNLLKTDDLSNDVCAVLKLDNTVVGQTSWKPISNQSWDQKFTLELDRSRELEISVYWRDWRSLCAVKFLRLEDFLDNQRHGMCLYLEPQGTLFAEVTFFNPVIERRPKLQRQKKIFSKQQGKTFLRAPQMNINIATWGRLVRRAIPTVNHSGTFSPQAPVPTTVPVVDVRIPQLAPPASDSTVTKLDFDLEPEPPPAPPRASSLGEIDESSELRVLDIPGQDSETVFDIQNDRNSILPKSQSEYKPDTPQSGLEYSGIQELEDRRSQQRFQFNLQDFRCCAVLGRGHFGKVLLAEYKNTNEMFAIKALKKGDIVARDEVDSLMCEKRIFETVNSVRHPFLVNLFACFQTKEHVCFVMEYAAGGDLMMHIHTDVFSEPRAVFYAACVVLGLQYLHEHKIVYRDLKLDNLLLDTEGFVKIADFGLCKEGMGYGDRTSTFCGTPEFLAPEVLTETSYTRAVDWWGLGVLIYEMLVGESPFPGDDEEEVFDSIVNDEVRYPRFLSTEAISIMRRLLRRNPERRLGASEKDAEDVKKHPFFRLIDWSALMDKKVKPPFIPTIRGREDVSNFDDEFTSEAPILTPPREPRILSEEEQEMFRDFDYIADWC

SMILES: CC(=O)Nc1cccc(C(=O)Nc2nc3ccc(O)cc3s2)c1 [Compound 03-58]
- residual kinase activity, PRK2 (PRK2; [1]): 36
- residual kinase activity, RSK1 (RSK1; [1]): 35
- residual kinase activity, JNK2 (JNK2): 99
- residual kinase activity, PKD1 (PKD1; [1]): 54
- residual kinase activity, MKK6 (MKK6): 103
- residual kinase activity, ROCK 2 (ROCK 2; [1]): 10
- residual kinase activity, ERK2 (ERK2): 104
- residual kinase activity, PKCγ (PKCγ): 86
- residual kinase activity, STK33 (STK33): 45

SMILES: CC(=O)NC(C)C(=O)Nc1nc2ccc(C(F)(F)F)cc2s1 (stereo not shown) [Compound 03-80]
- residual kinase activity, PRK2 (PRK2; [1]): 79
- residual kinase activity, RSK1 (RSK1; [1]): 90
- residual kinase activity, JNK2 (JNK2): 87
- residual kinase activity, PKD1 (PKD1; [1]): 82
- residual kinase activity, MKK6 (MKK6): 115
- residual kinase activity, ROCK 2 (ROCK 2; [1]): 80
- residual kinase activity, ERK2 (ERK2): 101
- residual kinase activity, PKCγ (PKCγ): 87
- residual kinase activity, STK33 (STK33): 60

SMILES: CC(=O)Nc1ccccc1C(=O)Nc1nc2ccc(O)cc2s1 [Compound 08-39]
- residual kinase activity, PRK2 (PRK2; [1]): 42
- residual kinase activity, RSK1 (RSK1; [1]): 30
- residual kinase activity, JNK2 (JNK2): 93
- residual kinase activity, PKD1 (PKD1; [1]): 32
- residual kinase activity, MKK6 (MKK6): 96
- residual kinase activity, ROCK 2 (ROCK 2; [1]): 22
- residual kinase activity, ERK2 (ERK2): 68
- residual kinase activity, PKCγ (PKCγ): 44
- residual kinase activity, STK33 (STK33): 61

SMILES: CC(=O)Nc1nc2ccc([N+](=O)[O-])cc2s1 [Compound 13-10]
- remaining activity at 100 µM (PRK2; 100 micromolar inhibitor concentration, 100 is no change, read-out: residual kinase activity, PRK2): 93%
- remaining activity at 100 µM (TAK1; 100 micromolar inhibitor concentration, 100 is no change, read-out: residual kinase activity, TAK1): 58%
- remaining activity at 100 µM (HER4; 100 micromolar inhibitor concentration, 100 is no change, read-out: residual kinase activity, HER4): 81%
- remaining activity at 100 µM (RSK1; 100 micromolar inhibitor concentration, 100 is no change, read-out: residual kinase activity, RSK1): 89%
- remaining activity at 100 µM (NEK6; 100 micromolar inhibitor concentration, 100 is no change, read-out: residual kinase activity, NEK6): 92%
- remaining activity at 100 µM (MST2; 100 micromolar inhibitor concentration, 100 is no change, read-out: residual kinase activity, MST2): 97%
- remaining activity at 100 µM (PKD1; 100 micromolar inhibitor concentration, 100 is no change, read-out: residual kinase activity, PKD1): 82%
- remaining activity at 100 µM (ROCK 2; 100 micromolar inhibitor concentration, 100 is no change, read-out: residual kinase activity, ROCK 2): 96%

SMILES: COc1cccc(NC(=O)Nc2nc3cc(O)ccc3s2)c1 [Compound 13-62]
- residual kinase activity, PRK2 (PRK2; [2]): 40
- residual kinase activity, TAK1 (TAK1; [2]): 11
- residual kinase activity, HER4 (HER4; [2]): 13
- residual kinase activity, RSK1 (RSK1; [2]): 25
- residual kinase activity, NEK6 (NEK6; [2]): 104
- residual kinase activity, MST2 (MST2; [2]): 3
- residual kinase activity, PKD1 (PKD1; [2]): 41
- residual kinase activity, ROCK 2 (ROCK 2; [2]): 11

SMILES: COc1ccc2sc(NC(=O)c3ccc(NC(C)=O)cc3)nc2c1 [MS:LY-2-77]
- residual kinase activity, PRK2 (PRK2; [1]): 92
- residual kinase activity, RSK1 (RSK1; [1]): 85
- residual kinase activity, JNK2 (JNK2): 99
- residual kinase activity, PKD1 (PKD1; [1]): 114
- residual kinase activity, MKK6 (MKK6): 111
- residual kinase activity, ROCK 2 (ROCK 2; [1]): 96
- residual kinase activity, ERK2 (ERK2): 105
- residual kinase activity, PKCγ (PKCγ): 94
- residual kinase activity, STK33 (STK33): 99

SMILES: COc1ccc2sc(NC(=O)c3cccc(NC(C)=O)c3)nc2c1 [MS:LY-2-85]
- residual kinase activity, PRK2 (PRK2; [1]): 66
- residual kinase activity, RSK1 (RSK1; [1]): 54
- residual kinase activity, JNK2 (JNK2): 100
- residual kinase activity, PKD1 (PKD1; [1]): 49
- residual kinase activity, MKK6 (MKK6): 99
- residual kinase activity, ROCK 2 (ROCK 2; [1]): 29
- residual kinase activity, ERK2 (ERK2): 98
- residual kinase activity, PKCγ (PKCγ): 80
- residual kinase activity, STK33 (STK33): 75

SMILES: CC(=O)Nc1ccc(C(=O)Nc2nc3cc(O)ccc3s2)cc1 [MS:LY-2-87]
- residual kinase activity, PRK2 (PRK2; [1]): 67
- residual kinase activity, RSK1 (RSK1; [1]): 29
- residual kinase activity, JNK2 (JNK2): 105
- residual kinase activity, PKD1 (PKD1; [1]): 52
- residual kinase activity, MKK6 (MKK6): 107
- residual kinase activity, ROCK 2 (ROCK 2; [1]): 38
- residual kinase activity, ERK2 (ERK2): 81
- residual kinase activity, PKCγ (PKCγ): 74
- residual kinase activity, STK33 (STK33): 51

SMILES: CC(=O)Nc1cccc(C(=O)Nc2nc3cc(O)ccc3s2)c1 [MS:LY-2-89]
- residual kinase activity, PRK2 (PRK2; [1]): 44
- residual kinase activity, RSK1 (RSK1; [1]): 13
- residual kinase activity, JNK2 (JNK2): 93
- residual kinase activity, PKD1 (PKD1; [1]): 22
- residual kinase activity, MKK6 (MKK6): 98
- residual kinase activity, ROCK 2 (ROCK 2; [1]): 11
- residual kinase activity, ERK2 (ERK2): 68
- residual kinase activity, PKCγ (PKCγ): 63
- residual kinase activity, STK33 (STK33): 37
